Molecular target: T1, multidrug resistance associated protein 4 (MRP4) (Homo sapiens, UniProt O15439)
T1 sequence (O15439 1-1325): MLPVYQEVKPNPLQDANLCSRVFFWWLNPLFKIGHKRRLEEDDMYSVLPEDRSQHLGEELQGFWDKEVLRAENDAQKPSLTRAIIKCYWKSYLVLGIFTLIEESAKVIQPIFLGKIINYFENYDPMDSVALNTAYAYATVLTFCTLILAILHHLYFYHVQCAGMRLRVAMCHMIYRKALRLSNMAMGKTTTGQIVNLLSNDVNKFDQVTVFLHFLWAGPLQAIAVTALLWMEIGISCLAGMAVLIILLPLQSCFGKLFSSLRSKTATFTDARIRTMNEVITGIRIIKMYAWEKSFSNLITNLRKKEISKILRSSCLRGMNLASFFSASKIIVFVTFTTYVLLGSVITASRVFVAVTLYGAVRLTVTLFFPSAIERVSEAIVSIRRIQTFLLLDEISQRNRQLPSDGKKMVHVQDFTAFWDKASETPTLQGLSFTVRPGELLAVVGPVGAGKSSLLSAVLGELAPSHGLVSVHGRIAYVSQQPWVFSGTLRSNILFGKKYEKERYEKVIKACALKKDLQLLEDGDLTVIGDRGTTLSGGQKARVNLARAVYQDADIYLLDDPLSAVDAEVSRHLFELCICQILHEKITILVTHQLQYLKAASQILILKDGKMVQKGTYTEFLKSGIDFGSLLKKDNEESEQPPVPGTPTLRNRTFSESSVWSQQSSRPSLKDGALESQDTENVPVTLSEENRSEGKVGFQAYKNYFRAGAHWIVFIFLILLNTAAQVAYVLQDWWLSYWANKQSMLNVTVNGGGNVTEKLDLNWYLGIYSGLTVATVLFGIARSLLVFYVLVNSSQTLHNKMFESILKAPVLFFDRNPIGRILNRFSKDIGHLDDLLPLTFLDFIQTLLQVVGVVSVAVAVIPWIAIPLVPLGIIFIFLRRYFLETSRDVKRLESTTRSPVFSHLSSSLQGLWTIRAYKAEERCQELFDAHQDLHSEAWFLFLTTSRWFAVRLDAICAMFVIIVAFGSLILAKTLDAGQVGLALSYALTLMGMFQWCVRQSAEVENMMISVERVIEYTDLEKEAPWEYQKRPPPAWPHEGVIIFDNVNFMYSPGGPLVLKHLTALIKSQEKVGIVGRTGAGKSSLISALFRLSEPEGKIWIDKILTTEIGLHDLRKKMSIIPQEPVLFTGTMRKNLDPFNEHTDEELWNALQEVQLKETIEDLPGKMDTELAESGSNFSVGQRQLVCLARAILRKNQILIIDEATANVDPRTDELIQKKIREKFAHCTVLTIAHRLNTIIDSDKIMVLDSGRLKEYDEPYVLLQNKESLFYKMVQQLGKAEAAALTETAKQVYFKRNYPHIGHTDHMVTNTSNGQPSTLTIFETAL
Assay type: biochemical

IC50: 125 µM
SMILES: CC(=O)Nc1ccc(O)c(SC[C@H](N)C(=O)O)c1 [APAP-CYS, acetaminophen cysteine]

Reference: paper PMC8320619 (Current Research in Toxicology, 2020)
